Laboratory results published in ChEMBL document CHEMBL1201862, “PubChem BioAssay data set” (2004).
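Interpolation was linear, between the two tested concentrations surrounding the appropriate level; five concentrations were tested over 48 hours in 96-well plates. GI50 = concentration required for 50% inhibition of growth.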 Calls of active or inactive are those of the source. No stated cut-off is given here; in the data, active = GI50 up to about 1.1 µM and inactive = higher.

What was measured:
Assay in all cases: NCI anticancer screen, dose series, 48 h
786-0 = system: 786-0
A549 = system: A549
ACHN = system: ACHN
BT-549 = system: BT-549
CAKI-1 = system: CAKI-1
CCRF-CEM = system: CCRF-CEM
COLO 205 = system: COLO 205
DU-145 = system: DU-145
EKVX = system: EKVX
HCC 2998 = system: HCC 2998
HCT-116 = system: HCT-116
HCT-15 = system: HCT-15
HL-60 = system: HL-60
HOP-92 = system: HOP-92
HT-29 = system: HT-29
Hs-578T = system: Hs-578T
IGROV-1 = system: IGROV-1
K562 = system: K562
KM12 = system: KM12
M14 = system: M14
MCF7 = system: MCF7
MDA-MB-231 = system: MDA-MB-231
MDA-MB-435 = system: MDA-MB-435
MDA-N = system: MDA-N
MOLT-4 = system: MOLT-4
Malme-3M = system: Malme-3M
NCI-H226 = system: NCI-H226
NCI-H23 = system: NCI-H23
NCI-H460 = system: NCI-H460
NCI-H522 = system: NCI-H522
NCI/ADR-RES = system: NCI/ADR-RES
OVCAR-3 = system: OVCAR-3
OVCAR-4 = system: OVCAR-4
OVCAR-5 = system: OVCAR-5
OVCAR-8 = system: OVCAR-8
PC-3 = system: PC-3
RPMI-8226 = system: RPMI-8226
RXF 393 = system: RXF 393
SF-268 = system: SF-268
SF-295 = system: SF-295
SF-539 = system: SF-539
SK-MEL-28 = system: SK-MEL-28
SK-MEL-2 = system: SK-MEL-2
SK-MEL-5 = system: SK-MEL-5
SK-OV-3 = system: SK-OV-3
SN12C = system: SN12C
SNB-19 = system: SNB-19
SNB-75 = system: SNB-75
SR = system: SR
SW-620 = system: SW-620
T47D = system: T47D
TK-10 = system: TK-10
U-251 = system: U-251
UACC-257 = system: UACC-257
UACC-62 = system: UACC-62
UO-31 = system: UO-31
A498 = system: A498
LOX IMVI = system: LOX IMVI

With `Cc1c(C)c2c(c(N)c1C#N)C(=O)N(NC(=S)Nc1ccccc1)C2=O` the GI50 (786-0) was 44.1 µM (inactive), the GI50 (A549) was > 100 µM (inactive) and the GI50 (ACHN) was 50 µM (inactive). For the same molecule, the GI50 (BT-549) was > 100 µM (inactive), the GI50 (CAKI-1) was 18.2 µM (inactive) and the GI50 (CCRF-CEM) was 62.5 µM (inactive). The GI50 (COLO 205) was 79.4 µM (inactive), the GI50 (DU-145) was > 100 µM (inactive) and the GI50 (EKVX) was > 100 µM (inactive). The GI50 (HCC 2998) was > 100 µM (inactive), the GI50 (HCT-116) was 52.6 µM (inactive) and the GI50 (HCT-15) was 67.8 µM. For the same molecule, the GI50 (HL-60) was 86.9 µM (inactive), the GI50 (HOP-92) was > 100 µM (inactive) and the GI50 (HT-29) was 60.1 µM (inactive). The GI50 (Hs-578T) was 42.1 µM (inactive), the GI50 (IGROV-1) was 56.5 µM (inactive) and the GI50 (K562) was > 100 µM (inactive). For the same molecule, the GI50 (KM12) was 91.4 µM (inactive), the GI50 (M14) was > 100 µM (inactive) and the GI50 (MCF7) was > 100 µM (inactive). For the same molecule, the GI50 (MDA-MB-231) was > 100 µM (inactive), the GI50 (MDA-MB-435) was > 100 µM (inactive) and the GI50 (MDA-N) was > 100 µM (inactive). The GI50 (MOLT-4) was 20.3 µM (inactive), the GI50 (Malme-3M) was 72.9 µM (inactive) and the GI50 (NCI-H226) was 42.8 µM (inactive). For the same molecule, the GI50 (NCI-H23) was > 100 µM (inactive), the GI50 (NCI-H460) was 61.2 µM (inactive) and the GI50 (NCI-H522) was 52.7 µM (inactive). For the same molecule, the GI50 (NCI/ADR-RES) was 71.3 µM (inactive), the GI50 (OVCAR-3) was > 100 µM (inactive) and the GI50 (OVCAR-4) was > 100 µM (inactive). The GI50 (OVCAR-5) was > 100 µM (inactive), the GI50 (OVCAR-8) was 45 µM (inactive) and the GI50 (PC-3) was > 100 µM (inactive). For the same molecule, the GI50 (RPMI-8226) was 43.3 µM (inactive), the GI50 (RXF 393) was 46 µM (inactive) and the GI50 (SF-268) was 31.4 µM (inactive). For the same molecule, the GI50 (SF-295) was 60.8 µM (inactive), the GI50 (SF-539) was 49.8 µM (inactive) and the GI50 (SK-MEL-28) was > 100 µM (inactive). For the same molecule, the GI50 (SK-MEL-2) was > 100 µM (inactive), the GI50 (SK-MEL-5) was 90.4 µM (inactive) and the GI50 (SK-OV-3) was > 100 µM (inactive). For the same molecule, the GI50 (SN12C) was 69.7 µM (inactive), the GI50 (SNB-19) was 56.6 µM (inactive) and the GI50 (SNB-75) was 39 µM (inactive). The GI50 (SR) was 22.4 µM (inactive), the GI50 (SW-620) was 57.5 µM (inactive) and the GI50 (T47D) was > 100 µM (inactive). For the same molecule, the GI50 (TK-10) was > 100 µM (inactive), the GI50 (U-251) was > 100 µM (inactive) and the GI50 (UACC-257) was > 100 µM (inactive). For the same molecule, the GI50 (UACC-62) was > 100 µM (inactive) and the GI50 (UO-31) was 44.4 µM (inactive).
`CCOC(=O)NNC(=O)NCc1cccc(CNC(=O)NNC(=O)OCC)c1` was tested, and the GI50 (786-0) was > 100 µM (inactive), the GI50 (A498) was > 100 µM (inactive) and the GI50 (A549) was > 100 µM (inactive). The GI50 (BT-549) was > 100 µM (inactive), the GI50 (CAKI-1) was > 100 µM (inactive) and the GI50 (CCRF-CEM) was > 100 µM (inactive). For the same molecule, the GI50 (COLO 205) was > 100 µM (inactive), the GI50 (DU-145) was > 100 µM (inactive) and the GI50 (EKVX) was > 100 µM (inactive). For the same molecule, the GI50 (HCC 2998) was > 100 µM (inactive), the GI50 (HCT-116) was > 100 µM (inactive) and the GI50 (HCT-15) was > 100 µM. For the same molecule, the GI50 (HL-60) was > 100 µM (inactive), the GI50 (HT-29) was > 100 µM (inactive) and the GI50 (Hs-578T) was > 100 µM (inactive). For the same molecule, the GI50 (K562) was > 100 µM (inactive), the GI50 (KM12) was > 100 µM (inactive) and the GI50 (LOX IMVI) was > 100 µM (inactive). For the same molecule, the GI50 (M14) was > 100 µM (inactive), the GI50 (MCF7) was > 100 µM (inactive) and the GI50 (MDA-MB-231) was > 100 µM (inactive). The GI50 (MDA-MB-435) was > 100 µM (inactive), the GI50 (MDA-N) was > 100 µM (inactive) and the GI50 (MOLT-4) was > 100 µM (inactive). The GI50 (Malme-3M) was > 100 µM (inactive), the GI50 (NCI-H226) was > 100 µM (inactive) and the GI50 (NCI-H23) was > 100 µM (inactive). The GI50 (NCI-H460) was > 100 µM (inactive), the GI50 (NCI-H522) was > 100 µM (inactive) and the GI50 (NCI/ADR-RES) was > 100 µM (inactive). The GI50 (OVCAR-3) was > 100 µM (inactive), the GI50 (OVCAR-4) was > 100 µM (inactive) and the GI50 (OVCAR-5) was > 100 µM (inactive). The GI50 (OVCAR-8) was > 100 µM (inactive), the GI50 (PC-3) was > 100 µM (inactive) and the GI50 (RPMI-8226) was > 100 µM (inactive). The GI50 (RXF 393) was > 100 µM (inactive), the GI50 (SF-268) was > 100 µM (inactive) and the GI50 (SF-539) was > 100 µM (inactive). For the same molecule, the GI50 (SK-MEL-28) was > 100 µM (inactive), the GI50 (SK-MEL-2) was > 100 µM (inactive) and the GI50 (SK-MEL-5) was > 100 µM (inactive). For the same molecule, the GI50 (SK-OV-3) was > 100 µM (inactive), the GI50 (SN12C) was > 100 µM (inactive) and the GI50 (SNB-19) was > 100 µM (inactive). The GI50 (SNB-75) was > 100 µM (inactive), the GI50 (SR) was > 100 µM (inactive) and the GI50 (SW-620) was > 100 µM (inactive). For the same molecule, the GI50 (T47D) was > 100 µM (inactive), the GI50 (TK-10) was > 100 µM (inactive) and the GI50 (U-251) was > 100 µM (inactive). The GI50 (UACC-257) was > 100 µM (inactive), the GI50 (UACC-62) was > 100 µM (inactive) and the GI50 (UO-31) was > 100 µM (inactive).
